What all share (experiment): NCI tumour cell line growth inhibition, 48 h
The subject of experiment [1] is HS 578T breast.
Experiment [2] relates to K-562 leukemia.
In experiment [3] the test system is M14 melanoma.
Experiment [4] deals with MOLT-4 leukemia.
For experiment [5], the system named is NCI-H460 lung.
Experiment [6] relates to SF-539 CNS.
Experiment [7] has as its system SK-MEL-28 melanoma.
For experiment [8], the system named is SNB-19 CNS.
The subject of experiment [9] is SNB-75 CNS.
Experiment [10] deals with SR leukemia.

Where “and” joins values, the source holds several entries; their conditions need not be identical. Equal values may be shown once.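 Cells were grown in 96-well plates and exposed to each compound for 48 hours at five concentrations; endpoints were interpolated linearly between bracketing concentrations, or set to the highest concentration if not reached. Here, GI50 denotes the concentration required for 50% inhibition of growth. TGI marks complete inhibition of growth.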 A value given as a limit tells only on which side of the number the result lay.

For 8 compounds, GI50 and TGI results are on record in PubChem BioAssay (NCI).

As to `CCCC(=O)NNc1[nH]c(-c2ccc(OC)cc2)cc1C(=O)OCC`, the GI50 in experiment [1] was 21.7 µM; in [2], 9.61 µM; in experiment [3] it was 20.4 µM; in [4], 6.52 µM; in [5] it was 46.6 µM; in experiment [6] it was 19.3 µM. The GI50 in experiment [7] was 12.7 µM; in [8], 54.3 µM; in [9] it was 15.4 µM; in experiment [10], 28.3 µM. Further, the TGI in experiment [1] is 57.9 µM; in [2], more than 100 µM; in experiment [3], 39.7 µM; in experiment [4], more than 100 µM; in experiment [5], more than 100 µM; in experiment [6], 37 µM. The TGI in experiment [7] was 25.6 µM; in experiment [8], more than 100 µM; in [9] it was 29.4 µM; in experiment [10], more than 100 µM.

On to `COc1cc(-c2nc3ccccc3s2)ccc1OCc1nc2n(n1)S(=O)(=O)c1ccccc1N2C`, for which the GI50 in experiment [1] was more than 100 µM; in experiment [2], 97.4 µM; in experiment [3], more than 100 µM; in experiment [4] it was more than 100 µM; in [5], more than 100 µM; in [6], more than 100 µM. Further, the GI50 in [7] is more than 100 µM; in experiment [8], more than 100 µM; in [9], 99.6 µM; in [10] it was more than 100 µM. Further, the TGI in [1], in experiment [2], in [3], in [4], in experiment [5] and in experiment [6] was more than 100 µM throughout. Further, the TGI in [7], in experiment [8], in [9] and in experiment [10] was more than 100 µM throughout.

With `CN(CCC(=O)O)S(=O)(=O)c1ccccc1`, the TGI in experiment [1], in experiment [2], in [3], in experiment [4], in [5] and in [6] was more than 100 µM throughout. The TGI in experiment [7], in experiment [8], in experiment [9] and in experiment [10] was more than 100 µM each time.

Consider `CC(C)=CCC/C(C)=C/CC/C(=C/COP(=O)(OCc1ccc([N+](=O)[O-])o1)N(C)CCCCCl)C(C)(C)C` (stereo not drawn), for which the TGI in [1] is 1.06 µM; in experiment [2], more than 100 µM; in experiment [3], 11.8 µM; in [4], more than 100 µM; in experiment [5] it was 11.5 µM; in experiment [6] it was 10.6 µM. Also, the TGI in [7] was 37.5 µM; in [8], 33.6 µM; in experiment [9], 40 µM; in [10], more than 100 µM. Besides, the GI50 in [2] was 6.22 µM; in experiment [3] it was 2.69 µM; in experiment [4], 1.82 µM; in experiment [5] it was 5 µM; in experiment [6], 4.25 µM; in [7], 17.1 µM. In addition, the GI50 in [8] was 15.8 µM; in experiment [9], 15.6 µM; in [10] it was 0.128 µM.

In the case of `Cn1cnc2c(NCc3ccccc3)nc(NCCO)nc21`, the GI50 is 162 µM in experiment [1]; 51 µM in experiment [3]; 103 µM in experiment [4]; 77.8 µM in experiment [5]; 36.7 µM in experiment [6]; 88.7 µM in [7]. The GI50 in experiment [8] is 98.9 µM; in experiment [9], 64.7 µM; in experiment [10] it was 69.1 µM. In addition, the TGI in experiment [1] was 465 µM; in experiment [2], 489 µM; in experiment [3], 120 µM; in experiment [4], 356 µM; in experiment [5] it was 441 µM; in experiment [6], > 90 µM and 92.7 µM. Besides, the TGI in [7] was 280 µM; in experiment [8], 382 µM; in experiment [9] it was 70.8 µM and 150 µM; in experiment [10] it was > 87 µM and 237 µM.

In the case of `Cc1ccc(C(=O)NC2CCCCC2)cc1-c1ccc(C(=O)NCC2CC2)cc1`, the GI50 in experiment [1] was more than 20.2 µM; in experiment [2], 19.4 µM; in experiment [3], more than 25 µM; in [4] it was more than 25 µM; in experiment [5] it was 16.8 µM; in experiment [6], more than 25 µM. In addition, the GI50 in experiment [7], in experiment [8], in experiment [9] and in experiment [10] was more than 25 µM each time. Further, the TGI in [1], in experiment [2], in experiment [3], in experiment [4], in experiment [5] and in [6] was more than 25 µM each time. The TGI in [7], in experiment [8], in [9] and in experiment [10] was more than 25 µM in each case.

For the compound `CO[C@H]1CC[C@@]2(C)C(=CC[C@H]3[C@@H]4C[C@H](O)C[C@@]4(C)CC[C@@H]32)C1`, the GI50 in [1] was 2.16 µM; in experiment [2], 2.78 µM; in experiment [3], 3.61 µM; in [4] it was 4.92 µM; in [5] it was 3.56 µM; in [6] it was 3.01 µM. Further, the GI50 in experiment [7] is 8.55 µM; in experiment [8] it was 4.86 µM; in experiment [9], 3.41 µM; in experiment [10], 2.72 µM. Also, the TGI in experiment [1] turned out to be 9.41 µM; in experiment [2], 16 µM; in [3], 16.2 µM; in [4], 30.6 µM; in experiment [5] it was 13.9 µM; in [6], 8.64 µM. Moreover, the TGI came out at 22.1 µM in [7], 22.2 µM in [8], 23 µM in [9] and 14.9 µM in [10].

As to `Cc1ccc(NC(=O)c2ccnc(N3CCCC3)c2)cc1-c1ccc(C(=O)NCC2CC2)cc1`, the GI50 in experiment [1], in [2], in [3], in experiment [4], in [5] and in experiment [6] was more than 25 µM in each case. Further, the GI50 was more than 25 µM in experiment [7], more than 25 µM in experiment [8], more than 21.7 µM in experiment [9] and 13 µM in experiment [10]. Moreover, the TGI in [1], in [2], in experiment [3], in [4], in experiment [5] and in experiment [6] was more than 25 µM throughout. The TGI in experiment [7], in experiment [8], in experiment [9] and in [10] was more than 25 µM in each case.
